Results from ChEMBL document CHEMBL5727136, “Inhibitors of RPN11” (2018).

How the values were obtained:
[1] = (§1) Biochemical Assay: In brief, this Rpn11 bioassay employs a fluorescent polarization readout based on the ability of the 26S proteasome to cleave the protein substrate including four tandem ubiquitin proteins fused to a peptide having a unique cysteine labeled with a fluorophore. Cleavage of this substrate by Rpn11 at the junction between the fourth ubiquitin and the peptide, releases the low molecular weight fluorescent peptide. Accordingly, inhibition of fluorescence correlates with inhibition of Rpn11. Inhibition is reported as the half maximal inhibitory concentration (IC50) for the candidate compound.The catalytic JAB1/MPN/Mov34 metalloenzyme (JAMM) motif of Rpn11 is found in 7 different human proteins including the Csn5 subunit of the COP9 signalosome, AMSH, AMSH-LP, the BRCC36 subunit of BRISC, MPND, and MYSM1. All of these enzymes cleave the isopeptide linkage that joins ubiquitin (or the ubiquitin-like protein Nedd8 in the case of Csn5) to a second molecule of ubiquitin or to a substrate. The conserved JAMM domain has the consensus sequence EXnHS/THX7SXXD, in which the histidine (His) and aspartic acid (Asp) residues bind the Zn2+ ion and the fourth coordination site is occupied by a water molecule that is engaged in hydrogen bonding with a conserved glutamic acid (Glu). The Zn2+ acts as a Lewis acid and increases the nucleophilic character of the bound water enough to allow hydrolytic cleavage of the isopeptide bond.
[2] = as §1; remark: listed apart in the source
[3] = as §1; remark: listed apart in the source

| SMILES | IC50 [1] [µM] | IC50 [2] [µM] | IC50 [3] [µM] |
| --- | --- | --- | --- |
| O=C(NCCN1CCOCC1)c1cnc2c(S)cccc2c1 | 25.4 | 6.4 | – |
| O=C(NCC1CCCO1)c1cnc2c(S)cccc2c1 (stereo unspecified) | 6.8 | 4.6 | 41.3 |
| O=C(NCc1ccc2c(c1)OCO2)c1cnc2c(S)cccc2c1 | < 0.2 | 0.9 | 7 |
| O=C(NCc1ccc(N2CCOCC2)cc1)c1cnc2c(S)cccc2c1 | – | 0.8 | – |
| O=C(NCc1ccc(F)cc1)c1cnc2c(S)cccc2c1 | 0.85 | – | 18 |
| O=C(NCCc1ccco1)c1ccnc2c(S)cccc12 | 2.9 | – | – |
| NC(=O)c1cnc2c(S)cccc2c1 | 1.2 | 1 | – |
| O=C(NCc1ccccc1)c1cnc2c(S)cccc2c1 | 15 | 1.1 | 11 |

Now from value to compound:

| IC50 [1] [µM] | IC50 [2] [µM] | IC50 [3] [µM] | SMILES |
| --- | --- | --- | --- |
| 3.3 | – | – | O=C(Nc1nccs1)c1cnc2c(S)cccc2c1 |
| 3.52 | – | – | O=C(NCc1cccnc1)c1cnc2c(S)cccc2c1 |
| 16.7 | – | – | O=C(NCc1ccccn1)c1cnc2c(S)cccc2c1 |
| 1.7 | – | 6.9 | O=C(NCCc1ccco1)c1cnc2c(S)cccc2c1 |
| 4.8 | – | 68 | CNC(=O)c1cnc2c(S)cccc2c1 |
| 0.6 | – | 0.5 | COc1ccc(CNC(=O)c2cnc3c(S)cccc3c2)cc1 |
| 7.8 | – | – | O=C(NCc1nccs1)c1cnc2c(S)cccc2c1 |
| 1.3 | 0.8 | 16 | O=C(NCc1cccs1)c1cnc2c(S)cccc2c1 |
| 0.9 | 0.9 | – | O=C(NCc1ccco1)c1cnc2c(S)cccc2c1 |
| 1.3 | 0.3 | 4 | O=C(NCCc1cccs1)c1cnc2c(S)cccc2c1 |
| – | – | 30 | O=C(NCCc1nccs1)c1cnc2c(S)cccc2c1 |
